Experimental data taken from patent publication EP2529738A1, “Substituted terpyridines” (Max-Delbrück-Centrum für Molekulare Medizin, priority 2011, dated 2012).
“Also recorded” adds a separate entry of the source.

Tests used:
[1] = target: T1, D/D domain of RIIα (Homo sapiens, UniProt P13861); experiment: 1H,15N-HSQC NMR binding experiment with 15N-labeled D/D domain; conditions: result in words; 100 µM 15N-labeled D/D domain, 300 µM compound
T1 construct: ^15N-isotopically enriched RIIα(1-44)
T1 sequence (P13861 1-44): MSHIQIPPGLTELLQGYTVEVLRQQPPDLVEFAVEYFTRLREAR
Protocol: For an estimate of binding specificity, the compounds were tested in a second NMR assay for binding to the D/D domain of RIIα. The D/D domain contains the AKAP binding site of RIIα. Therefore, suitable small molecule mimetics of the RIIBD of AKAP18 must bind to this domain of the full length protein. In other words, binding to the D/D domain is a good initial test for an AKAP-like, specific interaction of the compounds with RIIα.
For this purpose HSQC-experiments with ^15N-labeled D/D domain were employed with the compounds depicted in table 3. The results obtained correspond to the results from the STD experiments. […] In Fig. 5, HSQC-spectra of the D/D domain in presence and absence of 25b are depicted.
^1H,^15N-Heteronuclear Single Quantum Coherence (HSQC)-NMR)
^1H,^15N-HSQC-NMR experiments were carried on a 600 MHz spectrometer at 300 K.
^1H,^15N-correlation experiments using with ^15N-isotopically enriched RIIα(1-44) were recorded using a standard HSQC pulse program or an HMQC-SOFAST pulse program, both employing WATERGATE for solvent suppression.
The protein concentration employed for binding studies was in the order of 0.1 mM. The concentration of compounds was 0.3 mM for compounds and 0.8 mM for peptides, respectively. Experiments were performed in NMR buffer containing 5% d6-DMSO. Each step was followed by recording of a new spectrum. The acquisition time in the direct dimension was restricted to 150 ms. A total of 256 increments was recorded in the indirect dimension. [formula]

[2] = target: T2, full length RIIα-His (Homo sapiens, UniProt P13861); experiment: saturation transfer difference (STD) NMR binding experiment; conditions: result in words; reduction in ligand peak intensity indicates binding
T2 construct: 20 µM unlabelled PKA-RIIα FL(1-404)-His; His (C)
T2 sequence (P13861 whole entry): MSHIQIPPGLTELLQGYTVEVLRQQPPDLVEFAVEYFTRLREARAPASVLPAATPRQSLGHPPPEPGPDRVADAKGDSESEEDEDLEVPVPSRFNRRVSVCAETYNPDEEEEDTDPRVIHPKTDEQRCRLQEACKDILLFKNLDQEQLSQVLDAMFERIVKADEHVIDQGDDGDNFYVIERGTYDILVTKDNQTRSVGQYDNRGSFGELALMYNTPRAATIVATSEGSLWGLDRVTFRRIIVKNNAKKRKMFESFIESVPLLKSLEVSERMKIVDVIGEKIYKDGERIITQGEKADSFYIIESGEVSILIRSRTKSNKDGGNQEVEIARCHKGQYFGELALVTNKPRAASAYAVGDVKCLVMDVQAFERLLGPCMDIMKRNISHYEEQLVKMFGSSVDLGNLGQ
Protocol: (§1) The compounds were tested first in a saturation transfer difference (STD) NMR experiment. For the STD experiments with the compounds depicted in table 1 full length RIIα-His was used as the target protein. Prior to measurements of STD spectra in the presence of the target protein, the same set of experiments was performed in the absence of protein in order to confirm that no saturation of the compound signals takes place when irradiating the sample at the frequency chosen for protein irradiation. […] Table 2: Qualitative results from STD and HSQC experiments with the indicated compounds.
Saturation transfer difference nuclear magnetic resonance (STD-NMR)
(§2) NMR samples for STD-NMR contained 0.1 mM of the indicated compound in NMR buffer, with a final concentration of d6-DMSO of 2%. Samples were measured in presence or absence of 20 µM unlabelled PKA-RIIα FL(1-404)-His.
STD-NMR experiments were recorded with the carrier frequency set to -1000 (around -1 ppm) for on-resonance irradiation and about 330 ppm for off-resonance irradiation. A train of 50 Gaussian-shaped pulses at 40 ms was applied, each separated by a 1-ms delay, for a total duration of 2.05 s, to achieve selective protein saturation. Spectra acquisition was done with 32 scans in absence of protein and 256 scans in presence of protein and a relaxation delay of 1.3 s. A T1ρ spin lock pulse of 40 ms was used to suppress the background protein signals. The STD spectrum was obtained from the internal subtraction of the on-resonance from the off-resonance data by phase cycling.

[3] = system: AKAP18α-PKA interaction; conditions: inhibition of AKAP18α-PKA interaction; cited from earlier work
[4] = behaviour of the compound in the STD-NMR sample solution; assay type: physicochemical; conditions: 0.1 mM in NMR buffer, 2% d6-DMSO; no ligand peaks measurable by NMR
Protocol: as §1
In Fig. 4, the STD-spectra of a binding compound (25b) and a non-binding compound (14b) are depicted.
as §2

Compound | change in chemical shift of D/D domain signals upon addition of compound [1] | binding of the compounds to RIIα in STD experiments [2] | IC50 [3] | solubility in the STD-NMR sample [4]
Cc1cc(-c2nc(CCCN(Cc3ccccc3)Cc3ccccc3)cc3c2CCC3)cnc1-c1cc(CCC(=O)O)cnc1C(N)=O [25b, 3-[6-carbamoyl-5-[5-[3-[3-(dibenzylamino)propyl]-6,7-dihydro-5H-cyclopenta[c]pyridin-1-yl]-3-methyl-2-pyridyl]-3-pyridyl]propanoic acid] | change in chemical shift of D/D domain signals was observed | reduction in ligand peak intensity |  | 
Cc1cc(-c2nc(CCCNCc3ccccc3)cc3c2CCC3)cnc1-c1cc(CCC(=O)O)cnc1C(N)=O [14c] | no perturbation of chemical shifts | No binding was detected |  | 
Cc1cc(-c2nc(CCCN)cc3c2CCC3)cnc1-c1cc(CCC(=O)O)cnc1C(N)=O [14b] | no perturbation of chemical shifts | No binding was detected |  | 
PEDAELVRLSKRLVENAVEKAVQQY (SEQ ID 01) [AKAP18δ-L314E] |  |  | low nanomolar range | 
CCOC(=O)CCc1cnc(C#N)c(-c2ncc(-c3nc(CCCN(Cc4ccccc4)Cc4ccccc4)cc4c3CCC4)c(C)c2C)c1 [22a, Ethyl 3-(6-cyano-5-(5-(3-(3-(dibenzylamino)propyl)-6,7-dihydro-5H-cyclopenta[c]pyridin-1-yl)-3,4-dimethylpyridin-2-yl)pyridine-3-yl)propanoate] |  |  |  | precipitated from solution; also recorded: crystallized from the solution

The next lines start with results.

change in chemical shift of D/D domain signals upon addition of compound [1] | binding of the compounds to RIIα in STD experiments [2] | Compound | IC50 [3] | solubility in the STD-NMR sample [4]
 | reduction in ligand peak intensity | Cc1c(-c2nc(CCCN(Cc3ccccc3)Cc3ccccc3)cc3c2CCC3)cnc(-c2cc(CCC(=O)O)cnc2C(N)=O)c1C [25a, 3-[6-carbamoyl-5-[5-[3-[3-(dibenzylamino)propyl]-6,7-dihydro-5H-cyclopenta[c]pyridin-1-yl]-3,4-dimethyl-2-pyridyl]-3-pyridyl]propanoic acid] |  | 
no perturbation of chemical shifts | No binding was detected | CCOC(=O)CCc1cnc(C#N)c(-c2ncccc2C)c1 [compound 27] |  | 
